Assay results reported in publication PMC2730022 (Journal of medicinal chemistry, 2009).

How the values were obtained:
KB cells = assay: Protection from growth inhibition by nucleosides and AICA in KB cells; assay type: cell-based, human
FRα = conditions: RT16 cells; folic acid = 1; cited from earlier work
FRβ = conditions: D4 cells; folic acid = 1; cited from earlier work

| SMILES | Growth in the presence of AICA at higher concentrations (KB cells; AICA 320 μM, compound above 100 nM) | Protection by AICA from toxicity at low and medium concentrations (KB cells; AICA 320 μM, compound ≤ 50 nM) | Protection by adenosine from growth inhibitory effects (KB cells; adenosine 60 μM) | Effect of thymidine on growth inhibitory effects (KB cells; thymidine 10 μM) | Relative binding affinity for FRα (FRα) | Relative binding affinity for FRβ (FRβ) |
| --- | --- | --- | --- | --- | --- | --- |
| Nc1nc2sc(CCCCc3ccc(C(=O)N[C@@H](CCC(=O)O)C(=O)O)cc3)cc2c(=O)[nH]1 [Compound 4, N-{4-[4-(2-amino-4-oxo-3,4-dihydrothieno[2,3-d]pyrimidin-6-yl)butyl]benzoyl}-L-glutamic acid] | still significantly inhibited | almost completely protected | completely protective | did not alter |  |  |
| Nc1nc2c(c(=O)[nH]1)N(C=O)C(CNc1ccc(C(=O)N[C@@H](CCC(=O)O)C(=O)O)cc1)CN2 (stereo partly drawn) [LCV, (6R,S) 5-formyl tetrahydrofolate] |  |  |  |  | 0.25-0.45 | < 0.01 |
